Where two headings read alike, the source gives them in different places.
What was measured:
MAO-A [1] = target: T1, MAO-A (Mus musculus, UniProt Q64133); experiment: Inhibition of MAO activity ex vivo (brain); assay type: in vivo, mice; settings: mice, brain tissue
T1 construct: from tissue; host or cells: mouse brain
T1 sequence (Q64133 1-526): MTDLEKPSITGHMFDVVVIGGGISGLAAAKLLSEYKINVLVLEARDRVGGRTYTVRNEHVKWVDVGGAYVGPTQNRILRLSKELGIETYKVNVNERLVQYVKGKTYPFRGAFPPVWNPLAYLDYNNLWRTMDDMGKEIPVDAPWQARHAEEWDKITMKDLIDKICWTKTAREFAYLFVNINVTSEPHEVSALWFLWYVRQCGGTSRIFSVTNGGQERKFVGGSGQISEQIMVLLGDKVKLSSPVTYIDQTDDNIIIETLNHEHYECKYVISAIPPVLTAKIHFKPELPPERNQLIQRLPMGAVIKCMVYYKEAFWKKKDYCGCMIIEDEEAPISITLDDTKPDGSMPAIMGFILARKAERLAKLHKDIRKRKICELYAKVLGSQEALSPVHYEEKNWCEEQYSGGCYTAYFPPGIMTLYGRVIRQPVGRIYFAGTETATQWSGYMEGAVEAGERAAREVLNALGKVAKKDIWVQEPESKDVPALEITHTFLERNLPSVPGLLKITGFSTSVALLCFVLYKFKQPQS
Protocol: (§1) Substrate concentrations used were 50 μM (PEA) and 1 mM (5-HT).
(§2) Male Sabra mice, weighing 45-50 g were injected with test compound solutions (prepared in 0.9% saline). Each dose was administered to two or three mice. The mice were sacrificed two hours after drug administration or at a time corresponding to the peak AChE inhibition time (see Table 11). The brain and liver were rapidly dissected and stored in appropriate vials on ice. The tissues were weighed, diluted to ½ in sucrose 0.3M and stored at −20° C. before performance of the MAO assay described above. The results given in Table 11 relate to measurements made on brain tissue only.

MAO-B [2] = target: T2, MAO-B (Mus musculus, UniProt Q8BW75); experiment: Inhibition of MAO activity ex vivo (brain); assay type: in vivo, mice; settings: mice, brain tissue
T2 construct: from tissue; host or cells: mouse brain
T2 sequence (Q8BW75 1-520): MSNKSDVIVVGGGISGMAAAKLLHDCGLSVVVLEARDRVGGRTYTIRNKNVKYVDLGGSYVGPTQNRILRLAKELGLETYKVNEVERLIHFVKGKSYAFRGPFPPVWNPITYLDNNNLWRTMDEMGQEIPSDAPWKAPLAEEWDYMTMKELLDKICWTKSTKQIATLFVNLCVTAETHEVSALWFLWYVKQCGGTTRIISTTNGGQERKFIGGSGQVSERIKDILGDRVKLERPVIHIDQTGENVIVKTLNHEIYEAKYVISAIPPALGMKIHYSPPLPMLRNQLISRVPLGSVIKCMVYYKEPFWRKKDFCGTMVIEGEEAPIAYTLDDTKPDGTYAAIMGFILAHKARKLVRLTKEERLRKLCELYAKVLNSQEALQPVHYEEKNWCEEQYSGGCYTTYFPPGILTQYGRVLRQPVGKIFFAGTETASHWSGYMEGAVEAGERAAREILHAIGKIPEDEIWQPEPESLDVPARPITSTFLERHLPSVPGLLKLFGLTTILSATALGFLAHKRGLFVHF
Protocol: as §1, §2

whole brain AChE = target: T3, whole brain AChE (Mus musculus, UniProt P21836); settings: for AChE Inhibition Ex vivo ED50 (AC): mice, whole brain, at peak of activity; for AChE Inhibition Time to peak activity t / AChE Inhibition Time to return to 50% of peak t: mouse, in vivo
T3 sequence (P21836 32-614): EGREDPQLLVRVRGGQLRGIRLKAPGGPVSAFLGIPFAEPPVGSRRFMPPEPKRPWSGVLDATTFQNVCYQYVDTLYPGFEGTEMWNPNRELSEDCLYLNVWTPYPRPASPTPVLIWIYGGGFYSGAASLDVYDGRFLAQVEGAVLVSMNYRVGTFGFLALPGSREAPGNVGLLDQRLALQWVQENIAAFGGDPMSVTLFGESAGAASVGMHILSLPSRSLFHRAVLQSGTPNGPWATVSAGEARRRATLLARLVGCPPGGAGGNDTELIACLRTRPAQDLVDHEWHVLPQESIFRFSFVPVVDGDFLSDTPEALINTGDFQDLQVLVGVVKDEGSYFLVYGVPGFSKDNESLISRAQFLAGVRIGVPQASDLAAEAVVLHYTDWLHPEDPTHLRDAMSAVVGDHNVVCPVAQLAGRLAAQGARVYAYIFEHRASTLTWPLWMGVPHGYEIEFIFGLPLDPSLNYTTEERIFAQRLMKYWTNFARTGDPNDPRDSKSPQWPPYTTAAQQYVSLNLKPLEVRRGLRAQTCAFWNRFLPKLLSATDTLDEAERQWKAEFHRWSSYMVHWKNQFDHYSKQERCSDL
Protocol: Test drugs or saline were administered sub-cutaneously to male mice (Sabra strain, 28-35 g). […] The mice were sacrificed 15, 30, 50, 70, 90, 120 or 180 minutes after drug administration, the brains rapidly removed (minus cerebellum), weighed and homogenized in 0.1 M phosphate buffer, pH 8.0, containing Triton (1 mg/100 g tissue) and centrifuged to remove cell debris. Aliquots (25 μl) of the supernatant were then incubated with acetylthiocholine and DTNB. AChE activity was measured as described above. The % inhibition of whole brain AChE by each dose of drug was calculated by comparison with enzyme activity from 3 saline treated control mice run at the same time.

[3] = target: T4, Human erythrocyte acetylcholinesterase (Homo sapiens, UniProt P22303); experiment: biochemical; assay type: biochemical; settings: AChE Inhibition In vitro IC50
T4 construct: Human erythrocyte acetylcholinesterase (type XIII, Sigma Israel); purchased Sigma Israel type XIII; host or cells: human erythrocytes
T4 sequence (P22303 32-617 isoform P22303-2 limits assumed): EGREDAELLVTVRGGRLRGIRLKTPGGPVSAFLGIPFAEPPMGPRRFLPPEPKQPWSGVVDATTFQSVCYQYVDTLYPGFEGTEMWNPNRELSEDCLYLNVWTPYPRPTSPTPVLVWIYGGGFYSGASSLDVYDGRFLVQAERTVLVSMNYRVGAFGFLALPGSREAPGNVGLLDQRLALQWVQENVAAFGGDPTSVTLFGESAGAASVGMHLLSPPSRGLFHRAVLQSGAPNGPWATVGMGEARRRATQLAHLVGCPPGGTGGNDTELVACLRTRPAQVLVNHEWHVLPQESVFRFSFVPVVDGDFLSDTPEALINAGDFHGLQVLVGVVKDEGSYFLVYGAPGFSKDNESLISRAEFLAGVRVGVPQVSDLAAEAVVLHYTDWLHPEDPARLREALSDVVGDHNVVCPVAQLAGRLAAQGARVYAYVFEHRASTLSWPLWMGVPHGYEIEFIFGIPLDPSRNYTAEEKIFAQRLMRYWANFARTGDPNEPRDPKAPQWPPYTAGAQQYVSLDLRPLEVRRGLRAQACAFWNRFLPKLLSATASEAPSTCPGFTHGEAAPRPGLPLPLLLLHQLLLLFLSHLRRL
Protocol: Human erythrocyte acetylcholinesterase (type XIII, Sigma Israel), was prepared in a stock solution of 1 U/ml, containing Triton (1%) and bovine serum albumin (0.05%) in phosphate buffer (pH 8). The enzyme (0.05U) was incubated with 3-5 different concentrations of test compound (in triplicate) for periods of from 15 to 60 minutes at 37° C. […] The percentage inhibition of AChE by each concentration of drug is calculated by comparison with that of enzyme in the absence of drug.

MAO-B [4] = target: T5, MAO-B (Rattus norvegicus, UniProt P19643); experiment: Inhibition of MAO activity in vitro, PEA as substrate; assay type: biochemical; parameters: The MAO enzyme source was a homogenate of rat brain in 0.3M sucrose; from tissue; host or cells: rat brain homogenate, 600 g supernatant; settings: MAO-B Inhibition In vitro IC50, rat brain homogenate
T5 sequence (P19643 1-520): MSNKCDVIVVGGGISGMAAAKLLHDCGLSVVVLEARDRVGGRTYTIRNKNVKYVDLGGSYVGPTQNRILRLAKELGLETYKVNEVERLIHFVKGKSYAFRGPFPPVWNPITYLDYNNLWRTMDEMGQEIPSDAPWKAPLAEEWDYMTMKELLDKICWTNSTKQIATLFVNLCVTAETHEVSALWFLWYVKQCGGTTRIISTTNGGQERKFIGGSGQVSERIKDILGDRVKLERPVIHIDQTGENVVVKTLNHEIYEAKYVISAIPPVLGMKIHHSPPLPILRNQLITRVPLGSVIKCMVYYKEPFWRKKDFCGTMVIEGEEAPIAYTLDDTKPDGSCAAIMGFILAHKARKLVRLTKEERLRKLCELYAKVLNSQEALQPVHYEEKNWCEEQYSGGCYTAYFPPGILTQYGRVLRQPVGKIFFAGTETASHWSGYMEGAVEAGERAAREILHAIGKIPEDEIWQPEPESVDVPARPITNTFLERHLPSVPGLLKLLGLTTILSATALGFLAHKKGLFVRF
Protocol: as §1

MAO-A [5] = target: T6, MAO-A (Rattus norvegicus, UniProt P21396); experiment: Inhibition of MAO activity in vitro, 5-HT as substrate; assay type: biochemical; parameters: The MAO enzyme source was a homogenate of rat brain in 0.3M sucrose; from tissue; host or cells: rat brain homogenate, 600 g supernatant; settings: 5-HT substrate
T6 sequence (P21396 1-526): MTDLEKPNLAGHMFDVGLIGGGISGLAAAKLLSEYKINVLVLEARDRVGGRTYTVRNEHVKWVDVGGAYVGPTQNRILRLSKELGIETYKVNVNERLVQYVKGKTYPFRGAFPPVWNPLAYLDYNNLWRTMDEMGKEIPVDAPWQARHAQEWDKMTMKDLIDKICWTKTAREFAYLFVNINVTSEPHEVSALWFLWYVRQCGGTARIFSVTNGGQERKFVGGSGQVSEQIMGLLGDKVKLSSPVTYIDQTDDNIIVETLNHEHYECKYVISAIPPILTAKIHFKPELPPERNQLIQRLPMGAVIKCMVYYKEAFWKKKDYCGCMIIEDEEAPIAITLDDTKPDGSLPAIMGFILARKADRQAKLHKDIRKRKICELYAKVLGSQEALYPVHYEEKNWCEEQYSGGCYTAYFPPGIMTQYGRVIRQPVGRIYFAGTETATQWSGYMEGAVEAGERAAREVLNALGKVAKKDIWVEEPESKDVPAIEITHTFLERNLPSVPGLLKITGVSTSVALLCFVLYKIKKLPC
Protocol: as §1

[6] = MAO-A Inhibition In vitro IC50, rat brain homogenate

Protocol for mice: Therapeutic Ratio was calculated as LD50 divided by ED50 of ex vivo acetylcholine esterase inhibition.

Structure (SMILES)	MAO-A Inhibition Ex vivo ED50 (MAO-A [1])	MAO-B Inhibition Ex vivo ED50 (MAO-B [2])	AChE Inhibition Ex vivo ED50 (AC) (whole brain AChE) [µmol/kg]	AChE Inhibition Time to peak activity t (whole brain AChE) [min]	AChE Inhibition Time to return to 50% of peak t (whole brain AChE) [min]	Acute Toxicity LD50 (LD) (mice; mouse, in vivo) [µmol/kg]	Therapeutic Ratio LD/AC (mice; mouse, in vivo)	IC50 [3] [µM]	IC50 (MAO-B [4]) [µM]	IC50 (MAO-A [5]; [6]) [µM]	Acute Toxicity LD50 (LD) (mice; mice, within 6 hours after administration) [µmol/kg]	IC50 (MAO-A [5]; rat brain homogenate, read-out: MAO-A Inhibition In vitro IC50) [µM]
C#CCNC1CCc2ccc(OC(=O)N(C)CCCC)cc21 (centres unmarked) [Compound 81]	>>100 μmoles/kg	>>100 μmoles/kg	40	90	>120	920	23	11.5				
C#CCNC1CCc2c(OC(=O)N(C)C)cccc21 (centres unmarked) [Compound 34]			0.65	30		3.7	5.7	0.046	100	0.5		
C#CCNC1CCc2ccc(OC(=O)N(C)C)cc21 (centres unmarked) [Compound 23]			22.4		70	255			600	800		
C#CCN(C)C1CCc2cccc(OC(=O)N(C)C)c21 (centres unmarked) [Compound 32]	>>20 μmoles/kg	>>20 μmoles/kg	7.8	15		68	9.0	3.7	500	190		
CNC1CCc2ccc(OC(=O)N(C)C)cc21 (centres unmarked) [Compound 8]	>>50 μmoles/kg	>>50 μmoles/kg	10.0	15 to 30	>60						87	50
CCNC1CCc2ccc(OC(=O)N(C)C)cc21 (centres unmarked) [Compound 7]									> 1000	600		

From USRE39616E1, “Aminoindan derivatives” (priority 1996, dated 2007)
